Like-named read-outs stand apart in the source and are kept apart here. Marks after values point to notes of the source that are not given here. Where a SMILES comes first, the peptide text is derived from it. Bridges are numbered along the chain shown (N, C = ends). [ ]: non-standard residue; d: D form. Aad = N[C@@H](CCCC(=O)O)C(=O)O; Dab = NCC[C@H](N)C(=O)O; Mpa = O=C(O)CCS
What was measured:
V1a receptor = molecular target: T1, V1a receptor (Homo sapiens, UniProt P37288); experiment: V1a Human Vasopressin GPCR Cell Based Agonist Calcium Flux Assay; settings: Table 3, n = 2; for Emax: read-out: V1a Highest agonist effect (% of AVP)
T1 construct: host or cells: CHO cells
T1 sequence (P37288 whole entry): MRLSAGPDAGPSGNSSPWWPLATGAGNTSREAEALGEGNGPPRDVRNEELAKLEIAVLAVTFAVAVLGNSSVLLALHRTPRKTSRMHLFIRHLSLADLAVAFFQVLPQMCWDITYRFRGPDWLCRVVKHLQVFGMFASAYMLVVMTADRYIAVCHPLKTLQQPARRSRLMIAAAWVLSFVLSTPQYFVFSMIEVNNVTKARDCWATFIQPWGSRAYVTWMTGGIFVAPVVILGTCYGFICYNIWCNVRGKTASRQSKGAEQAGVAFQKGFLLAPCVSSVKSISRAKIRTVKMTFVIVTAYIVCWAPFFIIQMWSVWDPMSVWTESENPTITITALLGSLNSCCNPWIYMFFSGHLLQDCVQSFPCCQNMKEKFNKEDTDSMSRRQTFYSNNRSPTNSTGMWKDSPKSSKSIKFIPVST
Procedure: Peptides of Formula (I) include Mpa-Tyr-Phe-Hgn-Asn-Cys-Pro-Lys(X)a-Gly-NH2 [SEQ ID NO. 24]; where (X)a is a peptide with “a” residues and each residue X is independently selected from Gly, and a D- or L-amino acid version of Ala, Lys, Orn, Glu, and Asp, where “a” is 0-10. V1a Human Vasopressin GPCR Cell Based Agonist Calcium Flux Assay were conducted at Eurofins Cerep SA (France) on a fee for service basis. Human recombinant CHO cells expressing human V1 receptors were distributed in microplates. Intracellular calcium signal was detected by fluorimetry, and the signal was acquired before and after addition of a known agonist concentration. The following agonist concentrations were tested (nM); 0.0128, 0.064, 0.32, 1.6, 8, 40, 200, and 1,000. […] All assays were performed in duplicate. Changes in fluorescence intensity reflected changes in the concentration of free cytosolic calcium. […] The half-maximal effective concentration (EC50) was determined by a non-linear regression analysis of the concentration-response curves generated with mean replicate values using Hill equation curve fitting (Cerep, I'Evescault, France).
V1a Human Vasopressin GPCR Cell Based Agonist Calcium Flux Assay were conducted using human recombinant CHO cells expressing human V1 receptor. Briefly, human recombinant CHO cells expressing human V1 receptor were distributed in microplates at 4.5×10^4 cells/well. The fluorescent probe (Fluo4 Direct, Invitrogen) mixed with probenicid in HBSS buffer (Invitrogen) complemented with 20 mM HEPES (Invitrogen) (pH 7.4) is then added into each well and equilibrated with the cells for 60 min at 37° C. then 15 min at 22° C. Thereafter, the assay plates are positioned in a microplate reader (CellLux, PerkinElmer) which is used for the addition of the test compound, reference agonist or HBSS buffer (basal control), and the measurements of changes in fluorescence intensity which varies proportionally to the free cytosolic Ca^2+ ion concentration. The following agonist concentrations were tested (nM), 0.0128, 0.064, 0.32, 1.6, 8, 40, 200, and 1,000. […] All assays were performed in duplicate. Changes in fluorescence intensity reflected changes in the concentration of free cytosolic calcium. […] Referring to FIG. 3 and Table 4, the half-maximal effective concentration (EC50) was determined by non-linear regression analysis of the concentration-response curves generated with mean replicate values using Hill equation curve fitting (Cerep, I'Evescault, France).

[1] = Therapeutic index (NOAEL/NOEL): paleness, lethargy, ataxia observation in Sprague-Dawley rats (Example 7); type: in vivo; settings: for NOAEL at 24 h: male, Sprague-Dawley; for NOAEL at 24 h / NOAEL: read-out: Highest dose with no-observed adverse effect level without lethargy (NOAEL)
Text: As used herein, the term “therapeutic index” (TI; also referred to as therapeutic ratio) is a quantitative measure of the relative safety of a drug. […] For the purpose of the present application, lethargy is a lack of energy and/or sleepiness which is visually observed in rats as a lack of mobility, such as a lack of mobility even in the presence of human activity. For the purpose of present specification, peripheral vasoconstriction is visually observed by a paleness of the extremities (e.g., skin of hands, feet, ears, and lips). In rats, peripheral vasoconstriction is determined by a side-by-side comparison of ear paleness in treated subjects (e.g., Sprague Dawley rats, a white rat with easily visualizable changes in redness/paleness) vs. untreated control subjects. The V1a agonist (or partial agonist) with a high therapeutic index will have a better safety profile than that with a low therapeutic index by providing a wider margin of safety for dosing during the treatment of the disease. This NOAEL/NOEL ratio, being a quantitative measure of the relative safety, is a comparison of the amount of a therapeutic agent that causes the therapeutic effect (useful effect, vasoconstriction for the purpose of the present specification) to the amount that causes toxicity. A V1a agonist that causes severe vasoconstriction will affect not only the peripheral vessels, with several layer of smooth muscles, but also other vessels present in other organs (e.g., heart, lungs, kidney, brain) and this will result in observed lethargy and eventually ataxia. A partial agonist is less likely to reach such an extreme level of vasoconstriction and is believed to have a higher therapeutic index.
In this study, 8 to 10 weeks male Sprague-Dawley rats (Charles River; Wilmington, MA) under isoflurane anesthesia (n=3 or 6) were intravenously (IV) or subcutaneously (SC) injected or administered with various test articles. Prior to administration of test articles, the injection area was clipped free of fur, to allow for clear visualization of the dose site, and animal weight was measured and recorded. Animals were housed two per cage. […] Lethargy is when the animal eyes cannot fully open and is associated deep breathing and limited of movement even in the presence of human.

[2] = CHO cells expressing human V1 receptor, read-out: Estimated V1a EC50 (nM)
[3] = S.C., at the Marked adverse effect dose
[4] = S.C., at the Mild adverse effect dose
[5] = cells printed in μM, read-out: Estimated V1a EC50

SMILES | EC50 (V1a receptor; [2]) | Emax (V1a receptor) | Paleness (Duration, hrs; SD) [1, 3] | Paleness (Duration, hrs; SD) [1, 4] | Paleness (Duration, hrs; SD) ([1]; S.C., at the NOAEL dose) | Paleness (Duration, hrs; SD) ([1]; S.C., at the NOEL dose) | Highest dose with no-observed effect level or paleness (NOEL) ([1]; S.C., rat) | NOAEL/NOEL (therapeutic index) ([1]; S.C., rat) | NOAEL at 24 h ([1]; in vivo, sc, S.C., rat) | Marked adverse effect (Lowest dose first showed Ataxia) ([1]; rat, in vivo, sc) | Mild adverse effect (Lowest dose first showed Lethargy) ([1]; rat, in vivo, sc) | EC50 (V1a receptor; [5]) | NOAEL ([1]; in vivo, sc, S.C., rat) | Marked adverse effect (Lowest dose first showed Ataxia) ([1]; S.C., rat) | Mild adverse effect (Lowest dose first showed Lethargy) ([1]; S.C., rat) | Ataxia (duration, hrs; SD) ([1]; rat, in vivo, sc) | Lethargy (duration, hrs; SD) ([1]; rat, in vivo, sc)
NCC(=O)NCC(=O)NCCCC[C@H](NC(=O)[C@@H]1CCCN1C(=O)[C@@H]1CSSCCC(=O)N[C@@H](Cc2ccc(O)cc2)C(=O)N[C@@H](Cc2ccccc2)C(=O)N[C@@H](CCCC(N)=O)C(=O)N[C@@H](CC(N)=O)C(=O)N1)C(=O)NCC(N)=O [SEQ ID NO. 9, Mpa-Tyr-Phe-Hgn-Asn-Cys-Pro-Lys(X)a-Gly-NH2; (X)a = (Gly)2] | 38.2 nM | 37% | (>5.99)* hrs | (>6.04)* hrs | (5.74 ± 0.45) hrs | None Observed | 0.0015 mg/kg | 100 | 0.15 mg/kg | 1.5 mg/kg | 0.5 mg/kg |  |  |  |  |  | 
CC(=O)NCCCC[C@H](NC(=O)[C@@H]1CCCN1C(=O)[C@@H]1CSSCCC(=O)N[C@@H](Cc2ccc(O)cc2)C(=O)N[C@@H](Cc2ccccc2)C(=O)N[C@@H](CCCC(N)=O)C(=O)N[C@@H](CC(N)=O)C(=O)N1)C(=O)NCC(N)=O [SEQ ID NO. 28, Mpa-Tyr-Phe-Hgn-Asn-Cys-Pro-Lys(X)a-Gly-NH2; (X)a = Ac] |  | 30% |  |  |  |  | 0.1 mg/kg | 3 |  | 3 mg/kg | 1 mg/kg | > 10000 nM | 0.33 mg/kg |  |  |  | 
NCC(=O)NCC(=O)NCC(=O)NCC(=O)NCCCC[C@H](NC(=O)[C@@H]1CCCN1C(=O)[C@@H]1CSSCCC(=O)N[C@@H](Cc2ccc(O)cc2)C(=O)N[C@@H](Cc2ccccc2)C(=O)N[C@@H](CCCC(N)=O)C(=O)N[C@@H](CC(N)=O)C(=O)N1)C(=O)NCC(N)=O [SEQ ID NO. 11, Mpa-Tyr-Phe-Hgn-Asn-Cys-Pro-Lys(X)a-Gly-NH2; (X)a = (Gly)4] | 161 nM | 33.6% | (>6.93)* hrs | (>6.85)* hrs | (6.02 ± 0.06) hrs | None Observed | 0.0015 mg/kg | 100 | 0.15 mg/kg | 1.5 mg/kg | 0.5 mg/kg |  |  |  |  |  | 
NCC(=O)NCC(=O)NCC(=O)NCC(=O)NCC(=O)NCCCC[C@H](NC(=O)[C@@H]1CCCN1C(=O)[C@@H]1CSSCCC(=O)N[C@@H](Cc2ccc(O)cc2)C(=O)N[C@@H](Cc2ccccc2)C(=O)N[C@@H](CCCC(N)=O)C(=O)N[C@@H](CC(N)=O)C(=O)N1)C(=O)NCC(N)=O [SEQ ID NO. 12, Mpa-Tyr-Phe-Hgn-Asn-Cys-Pro-Lys(X)a-Gly-NH2; (X)a = (Gly)5] | 50.1 nM | 29.6% | (>6.69)* hrs | (>6.65)* hrs | (5.79 ± 0.08) hrs | None Observed | 0.0015 mg/kg | 100 | 0.15 mg/kg | 1.5 mg/kg | 0.5 mg/kg |  |  |  |  |  | 
NCC(=O)NCCCC[C@H](NC(=O)[C@@H]1CCCN1C(=O)[C@@H]1CSSCCC(=O)N[C@@H](Cc2ccc(O)cc2)C(=O)N[C@@H](Cc2ccccc2)C(=O)N[C@@H](CCCC(N)=O)C(=O)N[C@@H](CC(N)=O)C(=O)N1)C(=O)NCC(N)=O [SEQ ID NO. 8, Mpa-Tyr-Phe-Hgn-Asn-Cys-Pro-Lys(X)-Gly-NH2; X = Gly] | 25.3 nM | 40.3% | (>6.12)* hrs | (>6.12)* hrs | (6.20 ± 0.28) hrs | None Observed | 0.0015 mg/kg | 10 | 0.15 mg/kg | 1.5 mg/kg | 0.5 mg/kg |  |  |  |  |  | 
NCCCCCCCCCCCC(=O)NCCCC[C@H](NC(=O)[C@@H]1CCCN1C(=O)[C@@H]1CSSCCC(=O)N[C@@H](Cc2ccc(O)cc2)C(=O)N[C@@H](Cc2ccccc2)C(=O)N[C@@H](CCCC(N)=O)C(=O)N[C@@H](CC(N)=O)C(=O)N1)C(=O)NCC(N)=O [SEQ ID NO. 19, Mpa-Tyr-Phe-Hgn-Asn-Cys-Pro-Lys(12-aminododecanoic acid)-Gly-NH2] |  | 2.5% |  |  |  |  | 0.014 mg/kg | 649 (Dose too |  |  |  | > 10000 nM | 9.08 mg/kg | >9.08 mg/kg | >9.08 mg/kg | None Observed | None Observed
NCC[C@H](NC(=O)[C@@H]1CCCN1C(=O)[C@@H]1CSSCCC(=O)N[C@@H](Cc2ccc(O)cc2)C(=O)N[C@@H](Cc2ccccc2)C(=O)N[C@@H](CCCC(N)=O)C(=O)N[C@@H](CC(N)=O)C(=O)N1)C(=O)NCC(N)=O [SEQ ID NO. 31, Mpa-Tyr-Phe-Hgn-Asn-Cys-Pro-Dab-Gly-NH2] ([Mpa]YF[Aad](NH2)NCP[Dab]G-NH2; disulfide 1-6) |  |  |  |  |  |  | 0.0005 mg/kg |  |  | 0.045 mg/kg | 0.015 mg/kg |  | 0.005 mg/kg |  |  |  | 
NC[C@H](N)C(=O)NCCCC[C@H](NC(=O)[C@@H]1CCCN1C(=O)[C@@H]1CSSCCC(=O)N[C@@H](Cc2ccc(O)cc2)C(=O)N[C@@H](Cc2ccccc2)C(=O)N[C@@H](CCCC(N)=O)C(=O)N[C@@H](CC(N)=O)C(=O)N1)C(=O)NCC(N)=O [SEQ ID NO. 29, Mpa-Tyr-Phe-Hgn-Asn-Cys-Pro-Lys(X)a-Gly-NH2; (X)a = Dap] |  | 7.5% |  |  |  |  |  |  |  |  |  |  |  |  |  |  | 
CC(=O)NCC(=O)NCC(=O)NCC(=O)NCC(=O)NCC(=O)NCC(=O)NCC(=O)NCC(=O)NCC(=O)NCCCC[C@H](NC(=O)[C@@H]1CCCN1C(=O)[C@@H]1CSSCCC(=O)N[C@@H](Cc2ccc(O)cc2)C(=O)N[C@@H](Cc2ccccc2)C(=O)N[C@@H](CCCC(N)=O)C(=O)N[C@@H](CC(N)=O)C(=O)N1)C(=O)NCC(N)=O [SEQ ID NO. 26, Mpa-Tyr-Phe-Hgn-Asn-Cys-Pro-Lys(X)a-Gly-NH2; (X)a = (Gly)9-Ac] |  | 40% |  |  |  |  |  |  |  |  |  | > 10000 nM |  |  |  |  | 
NCCC[C@H](NC(=O)[C@@H]1CCCN1C(=O)[C@@H]1CSSCCC(=O)N[C@@H](Cc2ccc(O)cc2)C(=O)N[C@@H](Cc2ccccc2)C(=O)N[C@@H](CCCC(N)=O)C(=O)N[C@@H](CC(N)=O)C(=O)N1)C(=O)NCC(N)=O [SEQ ID NO. 30, Mpa-Tyr-Phe-Hgn-Asn-Cys-Pro-Orn-Gly-NH2] |  |  |  |  |  |  | 0.0005 mg/kg |  |  | 0.044 mg/kg | 0.015 mg/kg |  | 0.005 mg/kg |  |  |  | 
